Results reported in patent US20250145665A1, “MACROCYCLIC PEPTIDES USEFUL AS MODULATORS OF TNF ALPHA” (Bristol-Myers Squibb Company, priority 2023, published 2025).
Read-outs that look alike come from different tables or passages of the source. Starred links: 1 amine or outer side, 2 acyl side, 3 side chain; linkers in the order of their positions; H or OH if unused. Positions of bridges follow the written chain, without caps; N, C: chain ends. Non-standard residues stand in square brackets, D forms with d. Residues, ends and D or L forms follow the SMILES beside them. *: point of attachment. Bip(4'-(3-HOOC-benzamido)) = N[C@@H](Cc1ccc(-c2ccc(NC(=O)c3cccc(C(=O)O)c3)cc2)cc1)C(=O)O; Bip(4'-NHBz) = N[C@@H](Cc1ccc(-c2ccc(NC(=O)c3ccccc3)cc2)cc1)C(=O)O; Bip(4'-NH) = O=C([C@H](Cc1ccc(-c2ccc(N[*:3])cc2)cc1)N[*:1])[*:2]; Indazole3carbonyl(1-CH2COOH) = O=C(O)Cn1nc(C(=O)*)c2ccccc21; Bip(4'-COOH) = N[C@@H](Cc1ccc(-c2ccc(C(=O)O)cc2)cc1)C(=O)O; X63 = N=C(NCCC[C@@H](N[*:1])C(=O)[*:2])NCCc1cccc(O)c1; X51 = N=C(NCCC[C@@H](N[*:1])C(=O)[*:2])NCCc1ccccc1; Ala(morpholin-4-yl) = N[C@@H](CN1CCOCC1)C(=O)O; Benzoyl(3-OCH2COOH) = O=C(O)COc1cccc(C(=O)*)c1; Phe(3-CONH2) = NC(=O)c1cccc(C[C@H](N)C(=O)O)c1; Bip = N[C@@H](Cc1ccc(-c2ccccc2)cc1)C(=O)O; Tiq1c(1S) = O=C(O)[C@H]1NCCc2ccccc21; 2Pal = N[C@@H](Cc1ccccn1)C(=O)O; Tic = O=C(O)[C@@H]1Cc2ccccc2CN1; Cha = N[C@@H](CC1CCCCC1)C(=O)O; Tle = CC(C)(C)[C@H](N)C(=O)O; Sar = CNCC(=O)O

Target: TNFα (Homo sapiens, UniProt P01375)
Experiment: TNF-Induced HEK-Blue Assay
Assay type: cell-based
[1] = HEK-Blue-CD40L cells, NF-kB-driven secreted alkaline phosphatase reporter, TNFα 0.5 ng/ml, 18 h, read-out: TNF induced HEK-Blue assay IC50 value

Chain of TNFα (P01375 77-233 limits assumed): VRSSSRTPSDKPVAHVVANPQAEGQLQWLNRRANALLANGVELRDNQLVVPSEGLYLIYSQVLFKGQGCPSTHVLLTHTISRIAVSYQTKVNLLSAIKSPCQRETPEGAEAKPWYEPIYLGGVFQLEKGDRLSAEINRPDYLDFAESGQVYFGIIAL

SMILES	IC50 [nM]	IC50 [1] [nM]
CC[C@H](C)[C@@H]1NC(=O)[C@@H]2CCCN2C(=O)[C@H]([C@@H](C)CC)NC(=O)[C@@H](CCCNC(=N)N)NC(=O)[C@H](CC(=O)O)NC(=O)[C@H](Cc2ccccc2)NC(=O)CN(C)C(=O)[C@H](Cc2ccc(-c3ccc(NC(=O)c4nn(CC(=O)O)c5ccccc45)cc3)cc2)NC(=O)[C@H](Cc2ccc(-c3ccc(C(=O)O)cc3)cc2)NC(=O)[C@H](C(C)(C)C)NC(=O)CSC[C@@H](C(=O)NCC(N)=O)NC(=O)[C@H](CC(C)C)NC(=O)[C@H](Cc2cnc[nH]2)NC1=O [Example 359] ({CH2CO}-[Tle][Bip(4'-COOH)][Bip(4'-NH)](Indazole3carbonyl(1-CH2COOH))[Sar]FD[dR]IPIHLCG-NH2; thioether N-13)	< 50	
CC[C@H](C)[C@@H]1NC(=O)[C@@H](CCCNC(=N)N)NC(=O)[C@H](CC(=O)O)NC(=O)[C@H](Cc2cnc[nH]2)NC(=O)CN(C)C(=O)[C@H](Cc2ccc(-c3ccc(NC(=O)c4nn(CC(=O)O)c5ccccc45)cc3)cc2)NC(=O)[C@H](Cc2ccc(-c3ccc(C(=O)O)cc3)cc2)NC(=O)[C@H](CC2CCCCC2)NC(=O)CSC[C@@H](C(=O)NCC(N)=O)NC(=O)[C@H](CC(C)C)NC(=O)[C@H](Cc2cnc[nH]2)NC(=O)[C@H](C(C)C)NC(=O)[C@@H]2c3ccccc3CCN2C1=O [Example 360] ({CH2CO}-[Cha][Bip(4'-COOH)][Bip(4'-NH)](Indazole3carbonyl(1-CH2COOH))[Sar]HD[dR]I[Tiq1c(1S)]VHLCG-NH2; thioether N-13)	< 50	
CC[C@H](C)[C@@H]1NC(=O)[C@@H](CCCNC(=N)N)NC(=O)[C@H](CC(=O)O)NC(=O)[C@H](Cc2cnc[nH]2)NC(=O)CN(C)C(=O)[C@H](Cc2ccc(-c3ccc(NC(=O)c4nn(CC(=O)O)c5ccccc45)cc3)cc2)NC(=O)[C@H](Cc2ccc(-c3ccc(C(=O)O)cc3)cc2)NC(=O)[C@H](CC2CCCCC2)NC(=O)CSC[C@@H](C(=O)NCC(N)=O)NC(=O)[C@H](CC(C)C)NC(=O)[C@H](Cc2cnc[nH]2)NC(=O)[C@H](C(C)C)NC(=O)[C@@H]2Cc3ccccc3CN2C1=O [Example 361] ({CH2CO}-[Cha][Bip(4'-COOH)][Bip(4'-NH)](Indazole3carbonyl(1-CH2COOH))[Sar]HD[dR]I[Tic]VHLCG-NH2; thioether N-13)	< 50	
CC(C)C[C@@H]1NC(=O)[C@H](Cc2ccccn2)NC(=O)[C@H](C(C)C)NC(=O)[C@@H]2CCCN2C(=O)[C@H](C(C)C)NC(=O)[C@@H](CCCNC(=N)N)NC(=O)[C@H](CC(=O)O)NC(=O)[C@H](Cc2ccc(O)cc2)NC(=O)CN(C)C(=O)[C@H](Cc2ccc(-c3ccc(NC(=O)c4nn(CC(=O)O)c5ccccc45)cc3)cc2)NC(=O)[C@H](Cc2ccc(-c3ccc(C(=O)O)cc3)cc2)NC(=O)[C@H](CC2CCCCC2)NC(=O)CSC[C@@H](C(=O)NCC(N)=O)NC1=O [Example 362] ({CH2CO}-[Cha][Bip(4'-COOH)][Bip(4'-NH)](Indazole3carbonyl(1-CH2COOH))[Sar]YD[dR]VPV[2Pal]LCG-NH2; thioether N-13)	< 50	
CC(C)C[C@@H]1NC(=O)[C@H](Cc2ccc(O)cc2)NC(=O)[C@H](C(C)C)NC(=O)[C@@H]2CCCN2C(=O)[C@H](C(C)C)NC(=O)[C@@H](CCCNC(=N)N)NC(=O)[C@H](CC(=O)O)NC(=O)[C@@H]2CCCN2C(=O)CN(C)C(=O)[C@H](Cc2ccc(-c3ccc(NC(=O)c4nn(CC(=O)O)c5ccccc45)cc3)cc2)NC(=O)[C@H](Cc2ccc(-c3ccc(C(=O)O)cc3)cc2)NC(=O)[C@H](CC2CCCCC2)NC(=O)CSC[C@@H](C(=O)NCC(N)=O)NC1=O [Example 363] ({CH2CO}-[Cha][Bip(4'-COOH)][Bip(4'-NH)](Indazole3carbonyl(1-CH2COOH))[Sar]PD[dR]VPVYLCG-NH2; thioether N-13)	< 50	
CC[C@H](C)[C@@H]1NC(=O)[C@@H](CCCNC(=N)N)NC(=O)[C@H](CC(=O)O)NC(=O)[C@H](Cc2cnc[nH]2)NC(=O)CN(C)C(=O)[C@H](Cc2ccc(-c3ccc(NC(=O)c4nn(CC(=O)O)c5ccccc45)cc3)cc2)NC(=O)[C@H](Cc2ccc(-c3ccccc3)cc2)NC(=O)[C@H](CC2CCCCC2)NC(=O)CSC[C@@H](C(=O)NCC(N)=O)NC(=O)[C@H](CC(C)C)NC(=O)[C@H](Cc2cnc[nH]2)NC(=O)[C@H](C(C)C)NC(=O)[C@@H]2CCCN2C1=O [Example 364] ({CH2CO}-[Cha][Bip][Bip(4'-NH)](Indazole3carbonyl(1-CH2COOH))[Sar]HD[dR]IPVHLCG-NH2; thioether N-13)	< 50	
CC(C)C[C@@H]1NC(=O)[C@H](CCCNC(=N)N)NC(=O)[C@H](C(C)C)NC(=O)[C@@H]2CCCN2C(=O)[C@H](C(C)C)NC(=O)[C@@H](CCCNC(=N)NCCc2ccccc2)NC(=O)[C@H](CC(=O)O)NC(=O)[C@@H]2CCCN2C(=O)CN(C)C(=O)[C@H](Cc2ccc(-c3ccc(NC(=O)c4nn(CC(=O)O)c5ccccc45)cc3)cc2)NC(=O)[C@H](Cc2ccc(-c3ccccc3)cc2)NC(=O)[C@H](CN2CCOCC2)NC(=O)CSC[C@@H](C(=O)NCC(N)=O)NC1=O [Example 365] ({CH2CO}-[Ala(morpholin-4-yl)][Bip][Bip(4'-NH)](Indazole3carbonyl(1-CH2COOH))[Sar]PD[X51]VPVRLCG-NH2; thioether N-13)	< 50	
CC(C)C[C@@H]1NC(=O)[C@H](CCCNC(=N)N)NC(=O)[C@H](C(C)C)NC(=O)[C@@H]2CCCN2C(=O)[C@H](C(C)C)NC(=O)[C@@H](CCCNC(=N)NCCc2cccc(O)c2)NC(=O)[C@H](CC(=O)O)NC(=O)[C@@H]2CCCN2C(=O)CN(C)C(=O)[C@H](Cc2ccc(-c3ccc(NC(=O)c4nn(CC(=O)O)c5ccccc45)cc3)cc2)NC(=O)[C@H](Cc2ccc(-c3ccccc3)cc2)NC(=O)[C@H](CN2CCOCC2)NC(=O)CSC[C@@H](C(=O)NCC(N)=O)NC1=O [Example 366] ({CH2CO}-[Ala(morpholin-4-yl)][Bip][Bip(4'-NH)](Indazole3carbonyl(1-CH2COOH))[Sar]PD[X63]VPVRLCG-NH2; thioether N-13)	< 50	
CC[C@H](C)[C@@H]1NC(=O)[C@@H]2CCCN2C(=O)[C@H]([C@@H](C)CC)NC(=O)[C@@H](CCCNC(=N)N)NC(=O)[C@H](CC(=O)O)NC(=O)[C@H](Cc2ccccn2)NC(=O)CN(C)C(=O)[C@H](Cc2ccc(-c3ccc(NC(=O)c4ccccc4)cc3)cc2)NC(=O)[C@H](Cc2ccc(-c3ccccc3)cc2)NC(=O)[C@H](C(C)(C)C)NC(=O)CSC[C@@H](C(=O)NCC(N)=O)NC(=O)[C@H](CC(C)C)NC(=O)[C@H](Cc2cccc(C(N)=O)c2)NC1=O [Example 367] ({CH2CO}-[Tle][Bip][Bip(4'-NHBz)][Sar][2Pal]D[dR]IPI[Phe(3-CONH2)]LCG-NH2; thioether N-13)	< 50	
CC[C@H](C)[C@@H]1NC(=O)[C@@H]2CCCN2C(=O)[C@H]([C@@H](C)CC)NC(=O)[C@@H](CCCNC(=N)N)NC(=O)[C@H](CC(=O)O)NC(=O)[C@H](Cc2ccccn2)NC(=O)CN(C)C(=O)[C@H](Cc2ccc(-c3ccc(NC(=O)c4cccc(C(=O)O)c4)cc3)cc2)NC(=O)[C@H](Cc2ccc(-c3ccccc3)cc2)NC(=O)[C@H](C(C)(C)C)NC(=O)CSC[C@@H](C(=O)NCC(N)=O)NC(=O)[C@H](CC(C)C)NC(=O)[C@H](Cc2cccc(C(N)=O)c2)NC1=O [Example 368] ({CH2CO}-[Tle][Bip][Bip(4'-(3-HOOC-benzamido))][Sar][2Pal]D[dR]IPI[Phe(3-CONH2)]LCG-NH2; thioether N-13)		< 50
CC(C)C[C@@H]1NC(=O)[C@H](Cc2ccc(O)cc2)NC(=O)[C@H](C(C)C)NC(=O)[C@@H]2Cc3ccccc3CN2C(=O)[C@H](C(C)C)NC(=O)[C@@H](CCCNC(=N)N)NC(=O)[C@H](CC(=O)O)NC(=O)[C@@H]2CCCN2C(=O)CN(C)C(=O)[C@H](Cc2ccc(-c3ccc(NC(=O)c4cccc(OCC(=O)O)c4)cc3)cc2)NC(=O)[C@H](Cc2ccc(-c3ccc(C(=O)O)cc3)cc2)NC(=O)[C@H](CC2CCCCC2)NC(=O)CSC[C@@H](C(=O)NCC(N)=O)NC1=O [Example 369] ({CH2CO}-[Cha][Bip(4'-COOH)][Bip(4'-NH)](Benzoyl(3-OCH2COOH))[Sar]PD[dR]V[Tic]VYLCG-NH2; thioether N-13)		50 to 200
CC[C@H](C)[C@@H]1NC(=O)[C@@H](CCCNC(=N)N)NC(=O)[C@H](CC(=O)O)NC(=O)[C@H](Cc2cnc[nH]2)NC(=O)CN(C)C(=O)[C@H](Cc2ccc(-c3ccc(NC(=O)c4ccccc4)cc3)cc2)NC(=O)[C@H](Cc2ccc(-c3ccc(C(=O)O)cc3)cc2)NC(=O)[C@H](CC2CCCCC2)NC(=O)CSC[C@@H](C(=O)NCC(N)=O)NC(=O)[C@H](CC(C)C)NC(=O)[C@H](Cc2cnc[nH]2)NC(=O)[C@H](C(C)C)NC(=O)[C@@H]2Cc3ccccc3CN2C1=O [Example 370] ({CH2CO}-[Cha][Bip(4'-COOH)][Bip(4'-NHBz)][Sar]HD[dR]I[Tic]VHLCG-NH2; thioether N-13)	< 50	
CC[C@H](C)[C@@H]1NC(=O)[C@@H](CCCNC(=N)N)NC(=O)[C@H](CC(=O)O)NC(=O)[C@H](Cc2cnc[nH]2)NC(=O)CN(C)C(=O)[C@H](Cc2ccc(-c3ccc(NC(=O)c4cccc(C(=O)O)c4)cc3)cc2)NC(=O)[C@H](Cc2ccc(-c3ccc(C(=O)O)cc3)cc2)NC(=O)[C@H](CC2CCCCC2)NC(=O)CSC[C@@H](C(=O)NCC(N)=O)NC(=O)[C@H](CC(C)C)NC(=O)[C@H](Cc2cnc[nH]2)NC(=O)[C@H](C(C)C)NC(=O)[C@@H]2Cc3ccccc3CN2C1=O [Example 371] ({CH2CO}-[Cha][Bip(4'-COOH)][Bip(4'-(3-HOOC-benzamido))][Sar]HD[dR]I[Tic]VHLCG-NH2; thioether N-13)		< 50
CC[C@H](C)[C@@H]1NC(=O)[C@@H](CCCNC(=N)N)NC(=O)[C@H](CC(=O)O)NC(=O)[C@H](Cc2cnc[nH]2)NC(=O)CN(C)C(=O)[C@H](Cc2ccc(-c3ccc(NC(=O)c4cccc(OCC(=O)O)c4)cc3)cc2)NC(=O)[C@H](Cc2ccc(-c3ccc(C(=O)O)cc3)cc2)NC(=O)[C@H](CC2CCCCC2)NC(=O)CSC[C@@H](C(=O)NCC(N)=O)NC(=O)[C@H](CC(C)C)NC(=O)[C@H](Cc2cnc[nH]2)NC(=O)[C@H](C(C)C)NC(=O)[C@@H]2Cc3ccccc3CN2C1=O [Example 372] ({CH2CO}-[Cha][Bip(4'-COOH)][Bip(4'-NH)](Benzoyl(3-OCH2COOH))[Sar]HD[dR]I[Tic]VHLCG-NH2; thioether N-13)		< 50
